Measurements reported in paper PMC10499406 (Clinical and Translational Science, 2023).
Where two headings read alike, the source gives them in different places.

How the values were obtained:
CYP3A4 [1] = tested on: CYP3A4
IL‐1β = conditions: patients with atherosclerosis and residual inflammation ref 8; cited from earlier work
[2] = Plasma PK of metabolite indacenyl amine after GDC‐2394; format: in vivo, human
CYP3A4 [3] = experiment: clinical; conditions: human, in vivo
[4] = 1‐hydroxymidazolam, day 10 vs day 1
[5] = midazolam 5 mg alone (reference, day 1), analyte 1‐hydroxymidazolam, n 9

**Q.** Which results are given for `OCc1ncc2n1-c1ccc(Cl)cc1C(c1ccccc1F)=NC2` [1‐hydroxymidazolam]?
**A.** AUC0–inf GMR (CYP3A4 [1]; [4]): 90%; AUC0–last GMR (CYP3A4 [1]; [4]): 88%; Cmax GMR (CYP3A4 [1]; [4]): 92%; AUC0–inf, geometric LS mean (CYP3A4 [1]; [5]): 20.3 ng·h/mL; AUC0–last, geometric LS mean (CYP3A4 [1]; [5]): 18.8 ng·h/mL; C max, geometric LS mean (CYP3A4 [1]; [5]): 9.25 ng/mL

**Q.** Which “frequency of cardiovascular events” value (IL‐1β) does the source give for canakinumab: an anti‐IL‐1β antibody here?
**A.** Its value is “significantly reduced”.

**Q.** Which “day 7 predose indacenyl amine concentration, range” value ([2]; MAD 900‐mg b.i.d. cohort) does the source give for `Nc1c2c(cc3c1CCC3)CCC2` [indacenyl amine, 1,2,3,5,6,7‐hexahydro‐s‐indacen‐4‐amine] here?
**A.** Its value is 65.8 to 158 ng/mL.

**Q.** And the half-life ([2]; human, plasma, oral)?
**A.** The half-life was 36 to 49 h.

**Q.** Which results are given for `Cc1ncc2n1-c1ccc(Cl)cc1C(c1ccccc1F)=NC2` [Midazolam, midazolam, reference compound]?
**A.** AUC(0-inf) (CYP3A4 [3]): 56 ng·h/mL; AUC(0-t) (CYP3A4 [3]): 53.8 ng·h/mL; Cmax (CYP3A4 [3]): 25.6 ng/mL; AUC(0-inf) (CYP3A4 [3]; 5 mg): 57.8 ng·h/mL; AUC(0-t) (CYP3A4 [3]; 5 mg): 53.4 ng·h/mL; Cmax (CYP3A4 [3]; 5 mg): 22.9 ng/mL; AUC0–inf GMR (CYP3A4 [1]; human, in vivo): 97%; AUC0–inf GMR (test/reference), estimate (CYP3A4 [1]; human, in vivo): 0.97; AUC0–last GMR (CYP3A4 [1]; human, in vivo): 101%; AUC0–last GMR (test/reference), estimate (CYP3A4 [1]; human, in vivo): 1.01; C max GMR (test/reference), estimate (CYP3A4 [1]; human, in vivo): 1.12; Cmax GMR (CYP3A4 [1]; human, in vivo): 112%
